Among the data in ChEMBL document CHEMBL1147989, “Synthesis and structure-activity relationships of 4-hydroxy-4-phenylpiperidines as nociceptin receptor ligands: Part 2” (Bioorg Med Chem Lett, 2007) are Ki and Activity values, retold here.

Assay [1] deals with Delta-type opioid receptor (Homo sapiens, UniProt P41143). The assay is described as follows: Displacement of [3H]diprenorphine from human DOP receptor expressed in CHO cell membrane. Type of assay: cell membranes.
Assay [2] deals with Kappa-type opioid receptor (Homo sapiens, UniProt P41145). Put plainly: Displacement of [3H]diprenorphine from human KOP receptor expressed in CHO cell membrane. It counts as cell membranes. A general note: In a radioligand displacement assay an active substance lowers the binding of a labelled ligand.
The target of assay [3] is T1, Nociceptin receptor (Homo sapiens, UniProt P41146). The assay is described as follows: Displacement of [125I][Tyr14]nociceptin FQ from human NOP receptor expressed in CHO cell membrane. It counts as cell membranes.
In the next assay the target is Mu-type opioid receptor (Homo sapiens, UniProt P35372). Put plainly: Displacement of [3H]diprenorphine from human MOP receptor expressed in CHO cell membrane. Type of assay: cell membranes.
Assay [4] has as its target T1, Nociceptin receptor. Put plainly: Agonist activity at human NOP receptor transfected in CHO cells assessed as stimulation of [35S]GTPgammaS at 1 uM. Type of assay: functional, cell-based.

Mu-type opioid receptor, sequence (P35372 whole entry): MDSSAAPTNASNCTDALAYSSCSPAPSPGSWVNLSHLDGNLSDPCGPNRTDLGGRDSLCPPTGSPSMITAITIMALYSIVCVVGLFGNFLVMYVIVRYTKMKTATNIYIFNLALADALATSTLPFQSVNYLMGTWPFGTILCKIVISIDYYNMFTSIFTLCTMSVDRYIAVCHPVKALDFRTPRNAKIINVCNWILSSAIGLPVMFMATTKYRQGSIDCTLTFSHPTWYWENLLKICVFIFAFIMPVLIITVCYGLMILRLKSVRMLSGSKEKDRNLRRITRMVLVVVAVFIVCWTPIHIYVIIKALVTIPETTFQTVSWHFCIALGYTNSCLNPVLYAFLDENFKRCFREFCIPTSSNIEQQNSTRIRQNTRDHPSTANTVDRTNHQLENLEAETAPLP
Delta-type opioid receptor, sequence (P41143 whole entry): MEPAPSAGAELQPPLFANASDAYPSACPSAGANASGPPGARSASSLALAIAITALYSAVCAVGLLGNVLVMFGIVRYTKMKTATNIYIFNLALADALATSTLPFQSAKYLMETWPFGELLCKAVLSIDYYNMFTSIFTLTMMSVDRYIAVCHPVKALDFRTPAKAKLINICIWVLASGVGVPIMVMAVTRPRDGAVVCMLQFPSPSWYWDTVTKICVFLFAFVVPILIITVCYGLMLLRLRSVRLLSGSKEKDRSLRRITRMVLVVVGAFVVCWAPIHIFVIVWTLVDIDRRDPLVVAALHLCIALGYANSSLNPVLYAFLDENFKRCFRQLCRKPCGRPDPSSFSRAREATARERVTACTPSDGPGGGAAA
T1 sequence (P41146 whole entry): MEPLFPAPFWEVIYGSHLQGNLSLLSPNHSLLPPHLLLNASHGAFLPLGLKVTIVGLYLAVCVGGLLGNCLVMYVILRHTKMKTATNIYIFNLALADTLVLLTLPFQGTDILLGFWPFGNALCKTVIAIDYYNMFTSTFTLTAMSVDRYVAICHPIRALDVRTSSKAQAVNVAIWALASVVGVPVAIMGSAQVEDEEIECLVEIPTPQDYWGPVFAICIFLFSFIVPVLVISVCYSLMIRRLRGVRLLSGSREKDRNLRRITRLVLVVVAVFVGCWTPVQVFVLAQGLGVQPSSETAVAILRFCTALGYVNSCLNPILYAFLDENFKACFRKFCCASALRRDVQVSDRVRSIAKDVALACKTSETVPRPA
Kappa-type opioid receptor, sequence (P41145 whole entry): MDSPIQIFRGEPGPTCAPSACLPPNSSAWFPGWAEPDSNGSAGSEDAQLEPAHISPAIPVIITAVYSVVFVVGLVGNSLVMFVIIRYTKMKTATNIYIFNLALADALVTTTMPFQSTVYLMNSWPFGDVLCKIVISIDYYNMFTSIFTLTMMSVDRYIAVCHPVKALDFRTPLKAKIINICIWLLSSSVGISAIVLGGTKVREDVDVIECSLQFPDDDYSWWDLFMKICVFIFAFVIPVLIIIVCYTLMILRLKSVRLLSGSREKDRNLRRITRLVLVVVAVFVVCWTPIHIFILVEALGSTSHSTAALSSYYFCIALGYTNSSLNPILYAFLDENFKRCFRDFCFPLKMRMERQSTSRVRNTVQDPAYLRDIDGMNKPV

What is called Ki is a dissociation constant, usually derived from enzyme kinetics or from competition with a known ligand. In the case of `Cc1cccc(C2(O)CCN(C(c3ccccc3)c3ccccc3)CC2)c1`, the inhibition constant Ki in assay [1] came to 7800 nM; in assay [2] it was 1150 nM; on Nociceptin receptor [3] it was 27 nM; at Mu-type opioid receptor, 273 nM.
In the case of `NCc1ccccc1C1(O)CCN(C(c2ccccc2Cl)c2ccccc2Cl)CC1`, the Activity on Nociceptin receptor [4] amounted to 102%. For the same molecule, the Ki in assay [1] came out at 3000 nM; in assay [2] it was 747 nM; at Nociceptin receptor [3] it was 0.5 nM; on Mu-type opioid receptor, 249 nM.
For `OC1(c2ccccc2CN2CCNCC2)CCN(C(c2ccccc2Cl)c2ccccc2Cl)CC1`, the Ki in assay [1] amounted to 1170 nM; in assay [2], 261 nM; at Nociceptin receptor [3], 1.9 nM; on Mu-type opioid receptor it was 145 nM.
`OC1(c2nccs2)CCN(C(c2ccccc2)c2ccccc2)CC1`: affinity on Nociceptin receptor [3] was put at a Ki of 1270 nM.
As to `CNC(=O)NCc1ccccc1C1(O)CCN(C(c2ccccc2Cl)c2ccccc2Cl)CC1`, the Ki in assay [1] worked out at 1990 nM; in assay [2], 215 nM; at Nociceptin receptor [3], 2 nM; at Mu-type opioid receptor, 198 nM.
`NCc1ccccc1C1(O)CCN(C(c2ccccc2)c2ccccc2)CC1`: the Ki in assay [1] was 13900 nM; in assay [1] (cho) it was 13900 nM; in assay [2], 1660 nM; in assay [2] (cho), 1660 nM; at Nociceptin receptor [3] it was 1.6 nM; on Nociceptin receptor [3] (cho), 1.6 nM. The Ki on Mu-type opioid receptor and on Mu-type opioid receptor (cho) was 125 nM in each case.
For the molecule `Cc1ccc(C(c2ccc(C)cc2)N2CCC(O)(c3ccccc3CN)CC2)cc1`, the Ki in assay [1] was 8900 nM; in assay [2], 1060 nM; at Nociceptin receptor [3], 110 nM; on Mu-type opioid receptor, 502 nM.
Regarding `CCNC(=O)NCc1ccccc1C1(O)CCN(C(c2ccccc2Cl)c2ccccc2Cl)CC1`, the Ki in assay [1] came to 2440 nM; in assay [2], 330 nM; on Nociceptin receptor [3] it was 12 nM; at Mu-type opioid receptor it was 304 nM.
The corresponding values for `OC1(CCCc2ccccc2)CCN(C(c2ccccc2)c2ccccc2)CC1` are 13800 nM, 1800 nM, 1670 nM and 3360 nM.
Take `OCc1ccccc1C1(O)CCN(C(c2ccccc2)c2ccccc2)CC1`: the Ki in assay [1] is 4360 nM; in assay [2] it was 2770 nM; at Nociceptin receptor [3], 16 nM; on Mu-type opioid receptor it was 186 nM.
As to `CC(C)S(=O)(=O)NCc1ccccc1C1(O)CCN(C(c2ccccc2Cl)c2ccccc2Cl)CC1`, the Ki came out at 518 nM in assay [1], 174 nM in assay [2], 4.1 nM on Nociceptin receptor [3] and 163 nM on Mu-type opioid receptor.
The corresponding values for `CN1CCN(Cc2ccccc2C2(O)CCN(C(c3ccccc3Cl)c3ccccc3Cl)CC2)CC1` are 1700 nM, 139 nM, 2.2 nM and 190 nM.
In the same order, the values of `OC1(c2ccco2)CCN(C(c2ccccc2)c2ccccc2)CC1` are 14500 nM, 9640 nM, 136 nM and 4550 nM.
The corresponding values for `NCc1ccccc1C1(O)CCN(C(c2ccc(Cl)cc2)c2ccc(Cl)cc2)CC1` are 3990 nM, 2090 nM, 674 nM and 3080 nM.
`CC(C)(C)C1(O)CCN(C(c2ccccc2)c2ccccc2)CC1`: the Ki in assay [1] was 56600 nM; in assay [2] it was 1070 nM; at Nociceptin receptor [3], 62 nM; on Mu-type opioid receptor, 3600 nM.
As to `CN(C)c1ccc(C2(O)CCN(C(c3ccccc3)c3ccccc3)CC2)cc1`, on Nociceptin receptor [3], the Ki was found to be 4540 nM.
For `CCS(=O)(=O)N1CCN(Cc2ccccc2C2(O)CCN(C(c3ccccc3Cl)c3ccccc3Cl)CC2)CC1`, the inhibitory constant (Ki) in assay [1] amounted to 1590 nM; in assay [2] it was 146 nM; on Nociceptin receptor [3], 0.9 nM; at Mu-type opioid receptor, 351 nM.
`CCCCC1(O)CCN(C(c2ccccc2)c2ccccc2)CC1`: the Ki in assay [1] worked out at 18800 nM; in assay [2] it was 4560 nM; on Nociceptin receptor [3] it was 23 nM; on Mu-type opioid receptor, 272 nM.
In the same order, the values of `OC1(c2cccs2)CCN(C(c2ccccc2)c2ccccc2)CC1` are 8450 nM, 3410 nM, 48 nM and 1730 nM.
Regarding `CCCCc1ccc(C2(O)CCN(C(c3ccccc3)c3ccccc3)CC2)cc1`, the Ki at Nociceptin receptor [3] stood at 9160 nM.
Consider `CC(C)C1(O)CCN(C(c2ccccc2)c2ccccc2)CC1`, for which the Ki in assay [1] amounted to 52800 nM; in assay [2], 7390 nM; at Nociceptin receptor [3] it was 433 nM; on Mu-type opioid receptor, 13200 nM.
The corresponding values for `N#Cc1ccc(C2(O)CCN(C(c3ccccc3)c3ccccc3)CC2)cc1` are 28400 nM, 61000 nM, 1450 nM and 8380 nM.
With `NCc1ccccc1C1(O)CCN(C(c2ccccc2F)c2ccccc2F)CC1`, the Ki came out at 3700 nM in assay [1], 116 nM in assay [2], 0.5 nM on Nociceptin receptor [3] and 37 nM at Mu-type opioid receptor.
In the same order, the values of `OC1(c2ccccn2)CCN(C(c2ccccc2)c2ccccc2)CC1` are 45600 nM, 13200 nM, 313 nM and 11500 nM.
Consider `OC1(c2ccccc2F)CCN(C(c2ccccc2)c2ccccc2)CC1`, for which the Ki stood at 5610 nM in assay [1], 1740 nM in assay [2], 34 nM at Nociceptin receptor [3] and 589 nM on Mu-type opioid receptor.
In the same order, the values of `CCCS(=O)(=O)NCc1ccccc1C1(O)CCN(C(c2ccccc2Cl)c2ccccc2Cl)CC1` are 777 nM, 122 nM, 15 nM and 271 nM.
For `COc1ccc(C2(O)CCN(C(c3ccccc3)c3ccccc3)CC2)cc1`, the Ki in assay [1] amounted to 19200 nM; in assay [2], 10300 nM; on Nociceptin receptor [3] it was 588 nM; at Mu-type opioid receptor, 11100 nM.
In the same order, the values of `OC1(c2ccc(Cl)cc2)CCN(C(c2ccccc2)c2ccccc2)CC1` are 6360 nM, 1700 nM, 24 nM and 936 nM.
As to `COc1cccc(C2(O)CCN(C(c3ccccc3)c3ccccc3)CC2)c1`, the Ki was found to be 9590 nM in assay [1], 3670 nM in assay [2], 180 nM at Nociceptin receptor [3] and 2990 nM on Mu-type opioid receptor.
In the same order, the values of `OC1(c2ccc(Br)cc2)CCN(C(c2ccccc2)c2ccccc2)CC1` are 15200 nM, 2610 nM, 51 nM and 1060 nM.
In the same order, the values of `OC1(Cc2ccccc2)CCN(C(c2ccccc2)c2ccccc2)CC1` are 15000 nM, 1440 nM, 2180 nM and 10400 nM.
With `COc1ccccc1C1(O)CCN(C(c2ccccc2)c2ccccc2)CC1`, the Ki was determined as 4390 nM in assay [1], 4160 nM in assay [2], 85 nM on Nociceptin receptor [3] and 983 nM on Mu-type opioid receptor.
Consider `CNCc1ccccc1C1(O)CCN(C(c2ccccc2Cl)c2ccccc2Cl)CC1`, for which the Ki worked out at 3820 nM in assay [1], 255 nM in assay [2], 0.7 nM at Nociceptin receptor [3] and 167 nM on Mu-type opioid receptor.
In the same order, the values of `CCCCC(c1ccccc1)N1CCC(O)(c2ccccc2CN)CC1` (configuration not stated) are 1210 nM, 15 nM, 0.4 nM and 2 nM.
`CCCc1ccc(C2(O)CCN(C(c3ccccc3)c3ccccc3)CC2)cc1`: the Ki in assay [1] came to 33300 nM; in assay [2] it was 19700 nM; at Nociceptin receptor [3], 1750 nM; at Mu-type opioid receptor, 11400 nM.
In the same order, the values of `CCc1ccc(C2(O)CCN(C(c3ccccc3)c3ccccc3)CC2)cc1` are 24900 nM, 11400 nM, 1280 nM and 3430 nM.
In the same order, the values of `CCCCCC(c1ccccc1)N1CCC(O)(c2ccccc2CN)CC1` (configuration not stated) are 606 nM, 30 nM, 0.5 nM and 2 nM.
The corresponding values for `CCCCCCC1(O)CCN(C(c2ccccc2)c2ccccc2)CC1` are 17900 nM, 9220 nM, 1150 nM and 8900 nM.
Consider `Cc1ccsc1C1(O)CCN(C(c2ccccc2)c2ccccc2)CC1`, for which the Ki in assay [1] turned out to be 8880 nM; in assay [2] it was 2570 nM; on Nociceptin receptor [3], 15 nM; at Mu-type opioid receptor it was 756 nM.
In the same order, the values of `CC(C)S(=O)(=O)N1CCN(Cc2ccccc2C2(O)CCN(C(c3ccccc3Cl)c3ccccc3Cl)CC2)CC1` are 3160 nM, 186 nM, 0.6 nM and 353 nM.
The corresponding values for `Cc1ccc(C2(O)CCN(C(c3ccccc3)c3ccccc3)CC2)cc1` are 12100 nM, 4050 nM, 55 nM and 940 nM.
The corresponding values for `OC1(c2ccccc2CN2CCOCC2)CCN(C(c2ccccc2Cl)c2ccccc2Cl)CC1` are 2910 nM, 323 nM, 5.9 nM and 120 nM.
The molecule `NCc1ccccc1C1(O)CCN(Cc2ccccc2)CC1` returned a Ki at Nociceptin receptor [3] of 455 nM.
Turning to `NCc1ccccc1C1(O)CCN(C(c2cccc(F)c2)c2cccc(F)c2)CC1`, the Ki in assay [1] stood at 9380 nM; in assay [2] it was 771 nM; at Nociceptin receptor [3], 9.6 nM; at Mu-type opioid receptor, 616 nM.
In the same order, the values of `OC1(C2CC2)CCN(C(c2ccccc2)c2ccccc2)CC1` are 131000 nM, 26400 nM, 376 nM and 18400 nM.
The corresponding values for `OC1(c2ccc(F)cc2)CCN(C(c2ccccc2)c2ccccc2)CC1` are 3320 nM, 759 nM, 14 nM and 771 nM.
